Reference: patent EP2242752B1, “[…] IMIDAZOLES AS HEPATITIS C VIRUS INHIBITORS” (Bristol-Myers Squibb Company, priority 2008, dated 2009)

Tested on: HCV 1b genotype
Experiment: HCV Replicon assay (HCV 16-377-neo replicon cells)
Format: cell-based
Settings: Hepatitis C virus; HCV 1b genotype replicon cells; read-out: EC50 ranges against HCV 1b
Procedure, shortened: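 Inhibition measured in HCV 16-377-neo replicon cells, alongside replicon cells carrying the NS5A Y2065H resistance mutation.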

| Compound | EC50 |
| --- | --- |
| CC(C)[C@H](NC(=O)C1CC1)C(=O)N1[C@@H]2C[C@@H]2C[C@H]1c1ncc(-c2ccc(-c3ccc(-c4cnc([C@@H]5C[C@H]6C[C@H]6N5C(=O)[C@@H](NC(=O)C5CC5)C(C)C)[nH]4)cc3)cc2)[nH]1 [Example M141, N((1S)-1-(((1R,3S,SR)-3-(4-(4'-(2-((1R,3S,SR)-2-((2S)-2-((cyclopropylcarbonyl)amino)-3-methylbutanoyl)-2-azabicyclo[3.1.0]hex-3-yl)-1H imidazol-4-y/)-4-biphenyly/)-1H-imidazol-2-yl)-2-azabicyclo[3.1. 0]hex-2-yl)carbonyl)-2-methylpropyl)cyclopropanecarbamate] | 1 to 99 nM |
| CC(C)[C@@H](NC(=O)OC(C)(C)C)C(=O)N1[C@@H]2C[C@@H]2C[C@H]1c1nc(-c2ccc(-c3ccc(-c4c[nH]c([C@@H]5C[C@H]6C[C@H]6N5C(=O)[C@H](NC(=O)OC(C)(C)C)C(C)C)n4)cc3)cc2)c[nH]1 [Example M142, tert-butyl ((1R)-1-(((1R,3S,5R)-3-(4-(4'-(2-((1R,3S,5R)-2-((2R)-2-((tert-butoxycarbonyl)amino)-3-methylbutanoyl)-2-azabicyclo[3.1.0]hex-3-yl)-1H-imidazol-4-yl)-4-biphenylyl)-1H-imidazol-2-yl)-2-azabic yclo[3.1.0]hex-2-yl)carbonyl)-2-methylpropyl)carbamate] | 1 to 99 nM |
| CC(C)[C@H](Nc1ncccn1)C(=O)N1[C@@H]2C[C@@H]2C[C@H]1c1ncc(-c2ccc(-c3ccc(-c4cnc([C@@H]5C[C@H]6C[C@H]6N5C(=O)[C@@H](Nc5ncccn5)C(C)C)[nH]4)cc3)cc2)[nH]1 [Example M144, N,N'-(4,4'-biphenyldiylbis(1H-imidazole-4,2-diyl(1R,3S,5R)-2-azabicyclo[3.1.0]hexane-3,2-diyl((2S)-3-methyl-1-oxo-1, -butanediyl)))di(2-pyrimidinamine)] | 0.001 to 0.999 nM |
| COC(=O)N[C@H](C(=O)N1CC2(CC2)C[C@H]1c1nc(-c2ccc(-c3ccc(-c4c[nH]c([C@@H]5CC6(CC6)CN5C(=O)[C@@H](NC(=O)OC)C(C)C)n4)cc3)cc2)c[nH]1)C(C)C [Example M145, methyl ((1S)-1-(((6S)-6-(4-(4'-(2-((6S)-5-((2S)-2-((methoxycarbonyl)amino)-3-methylbutanoyl)-5-azaspiro[2.4]hept-6-yl)-1H-imidazol-4-yl)-4-biphenylyl)-1H-imidazol-2-yl)-5-azaspiro[2.4]hept-5-yl)carbonyl)-2-methylpropyl)carbamate] | 0.001 to 0.999 nM |
| COC(=O)NCC(=O)N1CC2(CC2)C[C@H]1c1nc(-c2ccc(-c3ccc(-c4c[nH]c([C@@H]5CC6(CC6)CN5C(=O)CNC(=O)OC)n4)cc3)cc2)c[nH]1 [Example M146, methyl (2-((6S)-6-(4-(4'-(2-((6S)-5-(((methoxycarbonyl)amino)acetyl)-5-azaspiro[2.4]hept-6-yl)-1H-imidazol-4-yl)-4-biphenylyl)-1H-imidazol-2-yl)-5-azaspiro[2.4]hept-5-yl)-2-oxoethyl)carbamate] | 0.001 to 0.999 nM |
| COC(=O)N[C@@H](C)C(=O)N1CC2(CC2)C[C@H]1c1nc(-c2ccc(-c3ccc(-c4c[nH]c([C@@H]5CC6(CC6)CN5C(=O)[C@H](C)NC(=O)OC)n4)cc3)cc2)c[nH]1 [Example M147, methyl ((1S)-2-((6S)-6-(4-(4'-(2-((6S)-5-(N-(methoxycarbonyl)-L-alanyl)-5-azaspiro[2.4]hept-6-yl)-1H-imidazol-4-yl)-4-biphenylyl)-1H-imidazol-2-yl)-5-azaspiro[2.4]hept-5-yl)-1-methyl-2-oxoethyl)carbam ate] | 0.001 to 0.999 nM |
| CC[C@H](NC(=O)OC)C(=O)N1CC2(CC2)C[C@H]1c1nc(-c2ccc(-c3ccc(-c4c[nH]c([C@@H]5CC6(CC6)CN5C(=O)[C@H](CC)NC(=O)OC)n4)cc3)cc2)c[nH]1 [Example M148, dimethyl (4,4'-biphenyldiylbis(1H-imidazole-4,2-diyl(6S)-5-azaspiro[2.4]heptane-6,5-diyl((2S)-1-oxo-1,2-butanediyl)))biscarbamate] | 0.001 to 0.999 nM |
| COC(=O)N[C@@H](C(=O)N1CC2(CC2)C[C@H]1c1nc(-c2ccc(-c3ccc(-c4c[nH]c([C@@H]5CC6(CC6)CN5C(=O)[C@H](NC(=O)OC)C(C)C)n4)cc3)cc2)c[nH]1)C(C)C [Example M149, methyl ((1R)-1-(((6S)-6-(4-(4'-(2-((6S)-5-((2R)-2-((methoxycarbonyl)amino)-3-methylbutanoyl)-5-azaspiro[2.4]hept-6-yl)-1H-imidazol-4-yl)-4-biphenylyl)-1H-imidazol-2-yl)-5-azaspiro[2.4]hept-5-yl)carbonyl)-2-methylpropyl)carbamate] | 1 to 99 nM |
| COC(=O)N[C@@H](C(=O)N1CC2(CC2)C[C@H]1c1nc(-c2ccc(-c3ccc(-c4c[nH]c([C@@H]5CC6(CC6)CN5C(=O)[C@H](NC(=O)OC)c5ccccc5)n4)cc3)cc2)c[nH]1)c1ccccc1 [Example M150, dimethyl (4,4'-biphenyldiylbis(1H-imidazole-4,2-diyl(6S)-5-azaspiro[2.4]heptane-6,5-diyl((1R)-2-oxo-1-phenyl-2,1-ethanediyl)))biscarbamate] | 0.001 to 0.999 nM |
| COC(=O)N[C@H](C(=O)N1[C@@H](C)CC[C@H]1c1nc(-c2ccc(-c3ccc(-c4c[nH]c([C@@H]5CC[C@H](C)N5C(=O)[C@@H](NC(=O)OC)C(C)C)n4)cc3)cc2)c[nH]1)C(C)C [Example M151, methyl ((1S)-1-(((2S,5S)-2-(4-(4'-(2-((2S,5S)-1-((2S)-2-((methoxycarbonyl)amino)-3-methylbutanoyl)-5-methyl-2-pyrrolidinyl)-1H-imidazol-4-yl)-4-biphenylyl)-1H-imidazol-2-yl)-5-methyl-1-pyrrolidinyl)carbonyl)-2-methylpropyl)carbamate] | 0.001 to 0.999 nM |
| COC(=O)N[C@@H](C(=O)N1[C@@H](C)CC[C@H]1c1nc(-c2ccc(-c3ccc(-c4c[nH]c([C@@H]5CC[C@H](C)N5C(=O)[C@H](NC(=O)OC)c5ccccc5)n4)cc3)cc2)c[nH]1)c1ccccc1 [Example M153, dimethyl (4,4'-biphenyldiylbis(1H-imidazole-4,2-diyl((2S,5S)-5-methyl-2,1-pyrrolidinediyl)((1R)-2-oxo-1-phenyl-2,1-ethanediyl)))biscarbamate] | 0.001 to 0.999 nM |
| CC[C@H](NC(=O)OC)C(=O)N1[C@@H](C)CC[C@H]1c1nc(-c2ccc(-c3ccc(-c4c[nH]c([C@@H]5CC[C@H](C)N5C(=O)[C@H](CC)NC(=O)OC)n4)cc3)cc2)c[nH]1 [Example M154, dimethyl (4,4'-biphenyldiylbis(1H-imidazole-4,2-diyl((2S,5S)-5-methyl-2,1-pyrrolidinediyl)((2S)-1-oxo-1,2-butanediyl)))biscarbamate] | 0.001 to 0.999 nM |
| COC(=O)NCC(=O)N1[C@@H](C)CC[C@H]1c1nc(-c2ccc(-c3ccc(-c4c[nH]c([C@@H]5CC[C@H](C)N5C(=O)CNC(=O)OC)n4)cc3)cc2)c[nH]1 [Example M155, methyl (2-((2S,5S)-2-(4-(4'-(2-((2S,5S)-1-(((methoxycarbonyl)amino)acetyl)-5-methyl-2-pyrrolidinyl)-1H-imidazol-4-yl)-4-biphenylyl)-1H-imidazol-2-yl)-5-methyl-1-pyrrolidinyl)-2-oxoethyl)carbamate] | 1 to 99 nM |
| COC(=O)NC(C)(C)C(=O)N1[C@@H](C)CC[C@H]1c1ncc(-c2ccc(-c3ccc(-c4cnc([C@@H]5CC[C@H](C)N5C(=O)C(C)(C)NC(=O)OC)[nH]4)cc3)cc2)[nH]1 [Example M156, methyl (2-((2S,5S)-2-(4-(4'-(2-((2S,5S)-1-(2-((methoxycarbonyl)amino)-2-methylpropanoyl)-5-methyl-2-pyrrolidinyl)-1H-imidazol-4-yl)-4-biphenylyl)-1H-imidazol-2-yl)-5-methyl-1-pyrrolidinyl)-1,1-dimethy 1-2-oxoethyl)carbamate] | 1 to 99 nM |
| COC(=O)N[C@@H](C)C(=O)N1[C@@H](C)CC[C@H]1c1nc(-c2ccc(-c3ccc(-c4c[nH]c([C@@H]5CC[C@H](C)N5C(=O)[C@H](C)NC(=O)OC)n4)cc3)cc2)c[nH]1 [Example M157, methyl ((1S)-2-((2S,5S)-2-(4-(4'-(2-((2S,5S)-1-(N-(methoxycarbonyl)-L-alanyl)-5-methyl-2-pyrrolidinyl)-1H-imidazol-4-yl)-4-biphenylyl)-1H-imidazol-2-yl)-5-methyl-1-pyrrolidinyl)-1-methyl-2-oxoethyl)carbamate] | 0.001 to 0.999 nM |
| CC(C)CC(=O)N1[C@@H](C)CC[C@H]1c1nc(-c2ccc(-c3ccc(-c4c[nH]c([C@@H]5CC[C@H](C)N5C(=O)CC(C)C)n4)cc3)cc2)c[nH]1 [Example M158, 4,4'-(4,4'-biphenyldiyl)bis(2-((2S,5S)-5-methyl-1-(3-methylbutanoyl)-2-pyrrolidinyl)-1H-imidazole)] | 1 to 99 nM |
| C[C@H]1CC[C@@H](c2nc(-c3ccc(-c4ccc(-c5c[nH]c([C@@H]6CC[C@H](C)N6C(=O)Cc6ccccc6)n5)cc4)cc3)c[nH]2)N1C(=O)Cc1ccccc1 [Example M159, 4,4'-(4,4'-biphenyldiyl)bis(2-((2S,5S)-5-methyl-1-(phenylacetyl)-2-pyrrolidinyl)-1H-imidazole)] | 0.001 to 0.999 nM |
| CC(C)[C@@H](O)C(=O)N1[C@@H](C)CC[C@H]1c1nc(-c2ccc(-c3ccc(-c4c[nH]c([C@@H]5CC[C@H](C)N5C(=O)[C@H](O)C(C)C)n4)cc3)cc2)c[nH]1 [Example M160, (2R,2'R)-1,1'-(4,4'-biphenyldiylbis(1H-imidazole-4,2-diyl((2S,5S)-5-methyl-2,1-pyrrolidinediyl)))bis(3-methyl-1-oxo-2-butanol)] | 1 to 99 nM |
| CC(C)[C@H](O)C(=O)N1[C@@H](C)CC[C@H]1c1nc(-c2ccc(-c3ccc(-c4c[nH]c([C@@H]5CC[C@H](C)N5C(=O)[C@@H](O)C(C)C)n4)cc3)cc2)c[nH]1 [Example M161, (2S,2'S)-1,1'-(4,4'-biphenyldiylbis(1H-imidazole-4,2-diyl((2S,5S)-5-methyl-2,1-pyrrolidinediyl)))bis(3-methyl-1-oxo-2-butanol)] | 1 to 99 nM |
| CC(=O)N1[C@@H](C)CC[C@H]1c1nc(-c2ccc(-c3ccc(-c4cnc([C@@H]5CC[C@H](C)N5C(C)=O)[nH]4)cc3)cc2)c[nH]1 [Example M162, 2-((2S,5S)-1-acetyl-5-methyl-2-pyrrolidinyl)-4-(4'-(2-((2S,5S)-1-acetyl-5-methyl-2-pyrrolidinyl)-1H-imidazol-5-yl)-4-biphenylyl)-1H-imidazole] | 1 to 99 nM |
